Earlier results as cited in patent US8884000B2 (priority 2010, dated 2014).

Target: saporin-L1 (Saponaria officinalis, UniProt Q2QEH4)
Details: pH 7.8

saporin-L1, sequence (Q2QEH4 22-280 limits assumed): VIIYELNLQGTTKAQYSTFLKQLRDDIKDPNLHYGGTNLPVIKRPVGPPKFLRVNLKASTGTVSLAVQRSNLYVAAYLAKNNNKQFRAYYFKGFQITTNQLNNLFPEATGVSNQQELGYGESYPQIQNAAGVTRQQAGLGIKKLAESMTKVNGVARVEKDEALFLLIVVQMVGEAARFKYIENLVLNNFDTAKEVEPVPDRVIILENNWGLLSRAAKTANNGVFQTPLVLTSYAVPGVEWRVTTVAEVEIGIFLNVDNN

poly(A)
Km: 639 ± 32 µM
kcat: 1.02 ± 0.017 s⁻¹
